Test results from patent US20200179428A1, “CYCLIC PHOSPHATE SUBSTITUTED NUCLEOSIDE DERIVATIVES AND METHODS OF USE THEREOF FOR THE TREATMENT OF VIRAL DISEASES” (priority 2016, published 2020).
pEC50: −log10 of the molar value. Read-outs that look alike come from different tables or passages of the source.

What was measured:
Format in all cases: cell-based
replicon cells = experiment: Cytotoxicity MTS assay (CellTiter 96 Aqueous One Solution) in replicon cells; details: EDU; read-out: CC50 (EDU) Range
replicon cells (1b-Con1) = experiment: Replicon activity assay (replicon RNA level by real-time RT-PCR, Taqman); details: HCV replicon genotype 1b, read-out: EC50 (1b) Range
Summary of the method: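 HCV 1b-Con1 replicon cells treated 3 days with 10-point twofold serial dilutions in triplicate (0.5% DMSO, 10% FBS); replicon RNA quantified by Taqman real-time RT-PCR normalised to GAPDH, EC50 derived. Cytotoxicity by MTS read-out at day 3 on identically treated cells.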

[1] = Cytotoxicity MTS assay (CellTiter 96 Aqueous One Solution) in replicon cells; details: HCV replicon cells (1b-Con1); EDU; read-out: CC50 (EDU) Range

Row | Compound | CC50 (replicon cells) | pEC50 (replicon cells (1b-Con1)) | CC50 at 3 days [1] | pEC50 (replicon cells (1b-Con1); Hepatitis C virus)
1 | C#C[C@@]1(O)[C@@H]2OP(=O)(OCCC(C)C(=O)OC3CCCC3)OC[C@H]2O[C@H]1n1ccc(=O)[nH]c1=O (single isomer, unassigned) [Compound 8A2] | > 50 µM | ≥ 6.60 |  | 
2 | CC(CCOP1(=O)OC[C@H]2O[C@@H](n3ccc(=O)[nH]c3=O)[C@](C)(N)[C@@H]2O1)C(=O)OC1CCCC1 (single isomer, unassigned) [Compound 14B2] | > 50 µM | 5.00 to 6.00 |  | 
3 | CC(CCOP1(=O)OC[C@H]2O[C@@H](n3ccc(=O)[nH]c3=O)[C@](C)(N)[C@@H]2O1)C(=O)OC1CCCC1 (single isomer, unassigned) [Compound 14B1] | > 50 µM | 5.00 to 6.00 |  | 
4 | C#C[C@@]1(O)[C@@H]2OP(=O)(OCC[C@H](C)C(=O)OC3CCCC3)OC[C@H]2O[C@H]1n1ccc(=O)[nH]c1=O (single isomer, unassigned) [Compound 8B2] | > 50 µM | 6.00 to 6.60 |  | 
5 | CC(C)OC(=O)C(C)CCOP1(=O)OC[C@H]2O[C@@H](n3cnc4c(N)ncnc43)[C@](C)(Cl)[C@@H]2O1 (single isomer, unassigned) [Compound 35B] | > 50 µM | ≥ 6.60 |  | 
6 | C#C[C@]1(C)[C@@H]2OP(=O)(OCCC(C(=O)OC(C)C)C(=O)OC(C)C)OC[C@H]2O[C@H]1n1ccc(=O)[nH]c1=O (single isomer, unassigned) [Compound 36B] | > 50 µM | 5.00 to 6.00 |  | 
7 | C#C[C@]1(C)[C@@H]2OP(=O)(OCC(C)CC(=O)OC(C)C)OC[C@H]2O[C@H]1n1ccc(=O)[nH]c1=O (single isomer, unassigned) [Compound 6A2] | > 50 µM | < 5.00 |  | 
8 | CC(C)OC(=O)[C@@H](C)CCOP1(=O)OC[C@H]2O[C@@H](n3cnc4c(N)ncnc43)[C@](C)(Cl)[C@@H]2O1 (single isomer, unassigned) [Compound 35B1] | > 50 µM | ≥ 6.60 |  | 
9 | CC(C)OC(=O)C(C)CCOP1(=O)OC[C@H]2O[C@@H](n3ccc(=O)[nH]c3=O)[C@](C)(Cl)[C@@H]2O1 (stereo partly shown) [Compound 39B] | > 50 µM | ≥ 6.60 |  | 
10 | C#C[C@@]1(O)[C@@H]2OP(=O)(OCC[C@@H](C)C(=O)OC(C)C)OC[C@H]2O[C@H]1n1ccc(=O)[nH]c1=O (single isomer, unassigned) [Compound 7B1] | > 50 µM | 6.00 to 6.60 |  | 
11 | C#C[C@]1(C)[C@@H]2O[P@@](=O)(OCC(CC(=O)OC(C)C)N(C)C(=O)OC(C)(C)C)OC[C@H]2O[C@H]1n1ccc(=O)[nH]c1=O (stereo partly shown) [Compound 74A2] | > 50 µM | < 5.00 |  | 
12 | CC(C)OC(=O)C(CCOP1(=O)OC[C@H]2O[C@@H](n3ccc(=O)[nH]c3=O)[C@](C)(Cl)[C@@H]2O1)C(=O)OC(C)C (stereo partly shown) [Compound 38B] | > 50 µM | ≥ 6.60 |  | 
13 | C#C[C@]1(C)[C@@H]2OP(=O)(OCC(C)CC(=O)OC3CCCC3)OC[C@H]2O[C@H]1n1ccc(=O)[nH]c1=O (single isomer, unassigned) [Compound 3B] | > 50 µM | ≥ 6.60 |  | 
14 | CC(CCOP1(=O)OC[C@H]2O[C@@H](n3ccc(=O)[nH]c3=O)[C@](C)(N)[C@@H]2O1)C(=O)OC1CCCC1 (single isomer, unassigned) [Compound 14A2] | > 50 µM | < 5.00 |  | 
15 | CCOC(=O)C(C)CCOP1(=O)OC[C@H]2O[C@@H](n3ccc(=O)[nH]c3=O)[C@](C)(N)[C@@H]2O1 (single isomer, unassigned) [Compound 5B] | > 50 µM | < 5.00 |  | 
16 | CC(C)OC(=O)[C@@H](C)CCOP1(=O)OC[C@H]2O[C@@H](n3ccc(=O)[nH]c3=O)[C@](C)(Cl)[C@@H]2O1 (single isomer, unassigned) [Compound 39B2] | > 50 µM | 6.00 to 6.60 |  | 

Row | Compound | CC50 (replicon cells) | pEC50 (replicon cells (1b-Con1)) | CC50 at 3 days [1] | pEC50 (replicon cells (1b-Con1); Hepatitis C virus)
17 | C#C[C@]1(C)[C@@H]2OP(=O)(OCC(C)CC(=O)OC(C)C)OC[C@H]2O[C@H]1n1ccc(=O)[nH]c1=O (single isomer, unassigned) [Compound 6A1] | > 50 µM | < 5.00 |  | 
18 | CC(CCOP1(=O)OC[C@H]2O[C@@H](n3ccc(=O)[nH]c3=O)[C@](C)(N)[C@@H]2O1)C(=O)OC1CCCC1 (single isomer, unassigned) [Compound 14B] | > 50 µM | < 5.00 |  | 
19 | C#C[C@@]1(O)[C@@H]2OP(=O)(OCCC(C)C(=O)OC(C)C)OC[C@H]2O[C@H]1n1ccc(=O)[nH]c1=O (stereo partly shown) [Compound 7B] | > 50 µM | ≥ 6.60 |  | 
20 | C#C[C@@]1(O)[C@@H]2OP(=O)(OCCC(C)C(=O)OC3CCCC3)OC[C@H]2O[C@H]1n1ccc(=O)[nH]c1=O (single isomer, unassigned) [Compound 8B] | > 50 µM | ≥ 6.60 |  | 
21 | CC(C)OC(=O)C(C)CCOP1(=O)OC[C@H]2O[C@@H](n3ccc(=O)[nH]c3=O)[C@](C)(N)[C@@H]2O1 (single isomer, unassigned) [Compound 10B1] | > 50 µM | < 5.00 |  | 
22 | C#C[C@]1(C)[C@@H]2OP(=O)(OCC(C)CC(=O)OC(C)C)OC[C@H]2O[C@H]1n1ccc(=O)[nH]c1=O (single isomer, unassigned) [Compound 6B1] | > 50 µM | 5.00 to 6.00 |  | 
23 | CC(C)OC(=O)C(C)CCOP1(=O)OC[C@H]2O[C@@H](n3ccc(=O)[nH]c3=O)[C@](C)(N)[C@@H]2O1 (single isomer, unassigned) [Compound 10B2] | > 50 µM | < 5.00 |  | 
24 | CC(C)OC(=O)C(C)CCOP1(=O)OC[C@H]2O[C@@H](n3cnc4c(N)ncnc43)[C@](C)(Cl)[C@@H]2O1 (single isomer, unassigned) [Compound 35B2] | > 50 µM | ≥ 6.60 |  | 
25 | CC(C)OC(=O)C(C)CCOP1(=O)OC[C@H]2O[C@@H](n3ccc(=O)[nH]c3=O)[C@](C)(N)[C@@H]2O1 (single isomer, unassigned) [Compound 10B] | > 50 µM | < 5.00 |  | 
26 | CO[C@H](CCOP1(=O)OC[C@H]2O[C@@H](n3ccc(=O)[nH]c3=O)[C@](C)(Cl)[C@@H]2O1)C(=O)OC(C)C (stereo partly shown) [Compound 37B] | > 50 µM | ≥ 6.60 |  | 
27 | C#C[C@]1(C)[C@@H]2OP(=O)(OCC(C)CC(=O)OC(C)C)OC[C@H]2O[C@H]1n1ccc(=O)[nH]c1=O (single isomer, unassigned) [Compound 6B2] | > 50 µM | 5.00 to 6.00 |  | 
28 | C#C[C@@]1(O)[C@@H]2OP(=O)(OCCC(C)C(=O)OC3CCCC3)OC[C@H]2O[C@H]1n1ccc(=O)[nH]c1=O (single isomer, unassigned) [Compound 8B1] | > 50 µM | ≥ 6.60 |  | 
29 | C#C[C@@]1(O)[C@@H]2OP(=O)(OCC[C@H](C)C(=O)OC(C)C)OC[C@H]2O[C@H]1n1ccc(=O)[nH]c1=O (single isomer, unassigned) [Compound 7B2] | > 50 µM | 5.00 to 6.00 |  | 
30 | CC(C)OC(=O)[C@@H](C)CCO[P@@]1(=O)OC[C@H]2O[C@@H](n3cnc4c(N)ncnc43)[C@](C)(C#N)[C@@H]2O1 [Compound 71A] |  |  | > 50 µM | < 5.00
31 | CC(C)OC(=O)C[C@@H](F)CO[P@@]1(=O)OC[C@H]2O[C@@H](n3ccc(=O)[nH]c3=O)[C@](C)(N)[C@@H]2O1 [Compound 67A] |  |  | > 50 µM | < 5.00
32 | CC(C)OC(=O)C(C)CCOP1(=O)OC[C@H]2O[C@@H](n3ccc(=O)[nH]c3=O)[C@](C)(N)[C@@H]2O1 (single isomer, unassigned) [Compound 10A2] | > 50 µM | < 5.00 |  | 
